Values quoted from earlier work in patent US9169245B2, “Inhibitors of PDE4 enzyme and antagonists of muscarinic M3 receptor” (CHIESI FARMACEUTICI S.p.A., priority 2012, dated 2015).

Legend:
[1] = COPD patients, oral, given over 4 weeks
[2] = patients with severe disease, frequent exacerbations and mucus hypersecretion

O=C(Nc1c(Cl)cncc1Cl)c1ccc(OC(F)F)c(OCC2CC2)c1 [roflumilast]
reduction of the numbers of neutrophils in sputum [1]: 36%
improvement of FEV 1 [2]: approximately 50 ml
reduction of exacerbation [2]: about 15%
